# Values of other authors as cited in patent US20130064804A1, “BIO-REPLENISHMENT (BioRep) FOR IMPROVING SLEEP ARCHITECTURE” (Naidu LP, priority 2011, published 2013).
# Legend:
# [1] = in vivo
# [2] = typical dose (1 to 3 mg)
elevation of blood melatonin levels above normal [2] [times],SMILES,first-pass: fraction metabolized in the liver [1]
–,"C[S+](CC[C@H](N)C(=O)O)C[C@H]1O[C@@H](n2cnc3c(N)ncnc32)[C@H](O)[C@@H]1O (some centres unmarked) [SAMe, S-adenosylmethionine]",approximately 50%
1 to 20,"COc1ccc2[nH]cc(CCNC(C)=O)c2c1 [melatonin, N-acetyl-5-methoxytryptamine]",–
